Where two headings read alike, the source gives them in different places.
What was measured:
[1] = molecular target: recombinant SARS-CoV-2 Main protease (Mpro) (Severe acute respiratory syndrome coronavirus 2 (2019-nCoV) (SARS-CoV-2), UniProt P0DTD1); assay: Cov Mpro Biochemical IC50 Assay
SARS-CoV-2-NLuc = assay: microbe, parasite or virus in culture; format: cell-based, SARS Coronavirus 2
[2] = recombinant SARS-CoV-2 Mpro 7.5 nM, fluorogenic peptide substrate 40 μM, read-out: MPro IC50
[3] = Severe acute respiratory syndrome coronavirus, 48 h; read-out: MPro EC50
[4] = recombinant SARS-CoV-2 Mpro, fluorogenic peptide substrate, read-out: MPro IC50
[5] = Severe acute respiratory syndrome coronavirus, 48 h, read-out: MPro EC50

Row | SMILES | IC50 [1, 2] | IC50 [1, 4] | EC50 (SARS-CoV-2-NLuc; [5]) | other results
1 | Cc1cncc(-n2c(=O)c3sc(-c4cc(F)ccc4C#N)cc3n(CCC#N)c2=O)c1 [Example 881] | 11.7 nM |  |  | EC50 (SARS-CoV-2-NLuc; [3]): 91.9 nM
2 | NC(=O)COc1cccc(Cl)c1-c1ccc2c(=O)n(-c3cncc4ccccc34)c(=O)[nH]c2c1 [Example 91] |  | 216 nM | 1140 nM | 
3 | Cc1n[nH]cc1-c1cccc(Cl)c1-c1ccc2c(=O)n(-c3cncc4ccccc34)c(=O)[nH]c2c1 [Example 261] |  | 79 nM | 98.6 nM | 
4 | O=c1[nH]c2cc(-c3c(Cl)cccc3-c3ccc4c(c3)OCCO4)sc2c(=O)n1-c1cncc2ccccc12 [Example 354] |  | 45.6 nM | 12.8 nM | 
5 | Cn1ncc2cncc(-n3c(=O)c4sc(-c5cc(F)c(F)cc5Cl)cc4n(CCC#N)c3=O)c21 (single isomer, unassigned) [Example 1076, 3-[6-(2-chloro-4,5-difluoro-phenyl)-3-(1-methylpyrazolo[4,3-c]pyridin-7-yl)-2,4-dioxo-thieno[3,2-d]pyrimidin-1-yl]propanenitrile] | 3.64 nM |  |  | EC50 (SARS-CoV-2-NLuc; read-out: MPro EC50): 10.9 nM
6 | Cn1ncc2cncc(-n3c(=O)c4sc(-c5cc(F)c(F)cc5C#N)cc4n(CCC#N)c3=O)c21 [Example 794] | 31.5 nM |  | > 1000 nM | 
7 | COc1cccc(Cl)c1-c1cc2[nH]c(=O)n(-c3cncc4ccccc34)c(=O)c2s1 [Example 19] |  | 29.5 nM | 59.6 nM | 
8 | Cc1c2c(-n3c(=O)c4sc(-c5ccccc5C#N)cc4n(CCC#N)c3=O)cncc2nn1C [Example 896] | 59.2 nM |  |  | EC50 (SARS-CoV-2-NLuc; [3]): 479 nM
9 | O=c1[nH]c2cc(-c3c(Cl)cccc3-c3ccnc(C(F)(F)F)c3)ccc2c(=O)n1-c1cncc2ccccc12 [Example 334] |  | 78.6 nM | 81.9 nM | 
10 | Cc1ccccc1-c1cc2[nH]c(=O)n(-c3cncc4ccccc34)c(=O)c2cn1 [Example 165] |  | 1470 nM | 2470 nM | 
11 | COc1cc(-c2cc3[nH]c(=O)n(-c4cncc5ccccc45)c(=O)c3s2)c(Cl)cc1F [Example 340, 6-(2-chloro-4-fluoro-5-methoxy-phenyl)-3-(4-isoquinolyl)-1H-thieno[3,2-d]pyrimidine-2,4-dione] |  | 5.23 nM | 5.39 nM | 
12 | Cc1cc2c(=O)n(-c3cncc4ccccc34)c(=O)[nH]c2cc1-c1ccccc1Cl [Example 81] |  | 231 nM | 184 nM | 
13 | N#CCCn1c(=O)n(-c2cccnc2)c(=O)c2sc(-c3cc(F)c(F)cc3Cl)cc21 [Example 803] | 25.9 nM |  |  | EC50 (SARS-CoV-2-NLuc; [3]): 91.5 nM
14 | COc1cc(-c2cc3c(s2)c(=O)n(-c2cncc4cc(F)ccc24)c(=O)n3CCC#N)c(Cl)cc1F [Example 951] | 9.45 nM |  | 5.38 nM | 
15 | COc1cc(-c2cc3[nH]c(=O)n(-c4cncc5ccccc45)c(=O)c3cc2F)c(C#N)cc1F [Example 202, 5-fluoro-2-[6-fluoro-3-(4-isoquinolyl)-2,4-dioxo-1H-quinazolin-7-yl]-4-methoxy-benzonitrile] |  | 13.6 nM | 18.4 nM | 
16 | COc1cc(-c2cc3c(s2)c(=O)n(-c2cncc(OC)c2C)c(=O)n3CCC#N)c(Cl)cc1F [Example 871] | 75.3 nM |  | 220 nM | 
17 | COc1cc(-c2ccc3c(=O)n(-c4cncc5ccccc45)c(=O)[nH]c3c2)c(Cl)cn1 [Example 253] |  | 459 nM | 1210 nM | 
18 | COc1ccc(Cl)c(-c2cc3[nH]c(=O)n(-c4cncc5ccc(F)cc45)c(=O)c3s2)c1 [Example 623, 6-(2-chloro-5-methoxy-phenyl)-3-(6-fluoro-4-isoquinolyl)-1H-thieno[3,2-d]pyrimidine-2,4-dione] | 11.5 nM |  |  | EC50 (SARS-CoV-2-NLuc; [3]): 30 nM
19 | N#Cc1cc(-c2cccc(Cl)c2-c2ccc3c(=O)n(-c4cncc5ccccc45)c(=O)[nH]c3c2)ccn1 [Example 328] |  | 15.4 nM | 45.9 nM | 
20 | Cc1cnc(Cl)c(-c2cc3c(s2)c(=O)n(-c2cncc4cnn(C)c24)c(=O)n3CCC#N)c1 [Example 1020] | 107 nM |  | 398 nM | 
21 | COc1cc(-c2ccc3c(=O)n(-c4cncc5ccccc45)c(=O)[nH]c3c2)c(Cl)cc1C [Example 250] |  | 1210 nM | 460 nM | 
22 | COc1cc(-c2cc3[nH]c(=O)n(-c4cncc5ccccc45)c(=O)c3cc2OC)c(C#N)cc1F (single isomer, unassigned) [Example 572, 5-fluoro-2-[3-(4-isoquinolyl)-6-methoxy-2,4-dioxo-1H-quinazolin-7-yl]-4-methoxy-benzonitrile] | 2.9 nM |  |  | EC50 (SARS-CoV-2-NLuc; read-out: MPro EC50): 10.6 nM
23 | COc1ccc(Cl)c(-c2cc3[nH]c(=O)n(-c4cncc5ccc(N6CCn7nnc(C)c7C6)cc45)c(=O)c3s2)c1 [Example 606] | < 2.54 nM |  | 28.1 nM | 
24 | Cc1cncc(-n2c(=O)c3sc(-c4ccc(F)cc4C#N)cc3n(CCC#N)c2=O)c1 [Example 880] | 10.6 nM |  |  | EC50 (SARS-CoV-2-NLuc; [3]): 42.3 nM

Row | SMILES | IC50 [1, 2] | IC50 [1, 4] | EC50 (SARS-CoV-2-NLuc; [5]) | other results
25 | N#Cc1cccc(-c2cccc(Cl)c2-c2ccc3c(=O)n(-c4cncc5ccccc45)c(=O)[nH]c3c2)n1 [Example 276] |  | 230 nM | 219 nM | 
26 | COc1ccc(Cl)c(-c2ccc3c(=O)n(-c4cncc5ccccc45)c(=O)[nH]c3c2)c1 (single isomer, unassigned) [Example 476, 7-(2-chloro-5-methoxy-phenyl)-3-(4-isoquinolyl)-1H-quinazoline-2,4-dione] | 258 nM |  |  | EC50 (SARS-CoV-2-NLuc; read-out: MPro EC50): 259 nM
27 | COc1cc(-c2cc3c(s2)c(=O)n(-c2cncc4nn(C)cc24)c(=O)n3CCC#N)c(Cl)cc1F [Example 909] | 5.94 nM |  | 12.3 nM | 
28 | COc1cc(-c2cc3[nH]c(=O)n(-c4cncc(C)c4Cl)c(=O)c3s2)c(Cl)cc1F [Example 1080] | 20.4 nM |  | 36 nM | 
29 | O=c1[nH]c2cc(-c3ccccc3Cl)sc2c(=O)n1-c1cncc2ccc(N3CCOCC3)cc12 (single isomer, unassigned) [Example 443, 6-(2-chlorophenyl)-3-(6-morpholinoisoquinolin-4-yl)thieno[3,2-d]pyrimidine-2,4(1H,3H)-dione] | 18.8 nM |  |  | EC50 (SARS-CoV-2-NLuc; read-out: MPro EC50): 45 nM
30 | COc1cc(-c2cc3[nH]c(=O)n(-c4cncc5nc(C)n(C)c45)c(=O)c3s2)c(Cl)cc1F [Example 764] | 18.1 nM |  | 257 nM | 
31 | COc1cc(-c2cc3[nH]c(=O)n(-c4cncc5ncccc45)c(=O)c3s2)c(Cl)cc1F [Example 737] | 17.9 nM |  | 74.1 nM | 
32 | COc1cc(-c2cc3[nH]c(=O)n(-c4cncc5cnn(C)c45)c(=O)c3s2)c(C)cc1F [Example 657] | 14.4 nM |  | 27.4 nM | 
33 | COc1cc(-c2cc3[nH]c(=O)n(-c4cncc5cnn(C)c45)c(=O)c3s2)c(C#N)cc1F [Example 751, 5-fluoro-4-methoxy-2-[3-(1-methylpyrazolo[4,3-c]pyridin-7-yl)-2,4-dioxo-1H-thieno[3,2-d]pyrimidin-6-yl]benzonitrile] | 11.1 nM |  | 216 nM | 
34 | CCOc1ccc(Cl)c(-c2ccc3c(=O)n(-c4cncc5ccccc45)c(=O)[nH]c3c2)c1 [Example 300] |  | 148 nM | 60.5 nM | 
35 | COc1ccc(Cl)c(-c2cc3[nH]c(=O)n(-c4cncc5ccc(O)cc45)c(=O)c3s2)c1 [Example 581] | < 2.54 nM |  | 151 nM | 
36 | Cc1cc(C)c(-c2cc3[nH]c(=O)n(-c4cncc5ccccc45)c(=O)c3s2)cc1C#N [Example 648] | 99.5 nM |  | 188 nM | 
37 | COc1ccc(Cl)c(-c2cc3[nH]c(=O)n(-c4cncc5cccc(Cl)c45)c(=O)c3s2)c1 [Example 601] | < 2.54 nM |  | 14.7 nM | 
38 | COc1cc(-c2cc3[nH]c(=O)n(-c4cncc5c(F)cccc45)c(=O)c3s2)c(Cl)cc1F [Example 1081] | 8.16 nM |  | 17.9 nM | 
39 | O=c1[nH]c2cc(-c3c(Cl)cccc3-c3ccc4c(c3)OCO4)ccc2c(=O)n1-c1cncc2ccccc12 [Example 356] |  | 130 nM | 52.2 nM | 
40 | Cn1ncc2cncc(-n3c(=O)[nH]c4cc(-c5cc(F)ccc5Cl)sc4c3=O)c21 [Example 663] | 14.4 nM |  | 16.6 nM | 
41 | N#CCCn1c(=O)n(-c2cncc3ccccc23)c(=O)c2sc(-c3c(Cl)cccc3-c3cncc(C#N)c3)cc21 [Example 935] | 14.3 nM |  | 24.6 nM | 
42 | COc1cc(-c2cc3[nH]c(=O)n(-c4cncc5nn(C)c(C)c45)c(=O)c3s2)c(Cl)cc1F [Example 754] | 9.21 nM |  | 76.3 nM | 
43 | Cn1nc(-c2cccc(Cl)c2-c2ccc3c(=O)n(-c4cncc5ccccc45)c(=O)[nH]c3c2)c2ccccc21 [Example 263] |  | 88.5 nM | 38.1 nM | 
44 | Cc1nn(C2CCN(C(=O)OC(C)(C)C)CC2)cc1-c1cccc(Cl)c1-c1ccc2c(=O)n(-c3cncc4ccccc34)c(=O)[nH]c2c1 [Example 266, tert-butyl 4-[4-[3-chloro-2-[3-(4-isoquinolyl)-2,4-dioxo-1H-quinazolin-7-yl]phenyl]-3-methyl-pyrazol-1-yl]piperidine-1-carboxylate] |  | 36.4 nM | 95.1 nM | 
45 | COc1cc(-c2cc3[nH]c(=O)n(-c4cncc5scc(C)c45)c(=O)c3s2)c(Cl)cc1F (single isomer, unassigned) [Example 1057, 6-(2-chloro-4-fluoro-5-methoxyphenyl)-3-(3-methylthieno[2,3-c]pyridin-4-yl)thieno[3,2-d]pyrimidine-2,4(1H,3H)-dione] | 145 nM |  |  | EC50 (SARS-CoV-2-NLuc; read-out: MPro EC50): 52.6 nM
46 | O=c1c2sc(-c3ccccc3Cl)cc2[nH]c(=S)n1-c1cncc2ccccc12 [Example 176] |  |  |  | IC50 ([1]; MPro IC50, recombinant SARS-CoV-2 Mpro, fluorogenic peptide substrate): 330 nM; EC50 (SARS-CoV-2-NLuc; [3]): 292 nM
47 | COc1cc(-c2cc3[nH]c(=O)n(-c4cncc5scc(C)c45)c(=O)c3s2)c(Cl)cc1F (single isomer, unassigned) [Example 1056, 6-(2-chloro-4-fluoro-5-methoxyphenyl)-3-(3-methylthieno[2,3-c]pyridin-4-yl)thieno[3,2-d]pyrimidine-2,4(1H,3H)-dione] | 2.34 nM |  |  | EC50 (SARS-CoV-2-NLuc; read-out: MPro EC50): < 1.01 nM
